These are literature values, as cited in patent US20240318128A1, “BIOFUNGICIDE PRODUCTION BY CONIOCHAETA AND APPLICATION IN CONTROL OF EARLY BLIGHT OF POTATO” (The United States of America, as represented by the …, priority 2023, published 2024).

In the data set the test system is yeast and bacteria. Particulars: Segeth et al. 2003.

coniocetin: the spectrum of inhibition entry is reported as “inhibits”.
